Experimental data: US20030181334A1, “Herbicidal method” (priority 2001, published 2003)

system: Amaranthus retroflexus, Abutilon theophrasti, Alopecurus myosuroides, Avena fatua, Brassica rapa and Echinochloa crus-galli; assay: Pre-emergence and post-emergence effect on weeds; assay type: in vivo; conditions: 500 g/ha or less; pre- or post-emergence application; one or more of the weed species; two weeks after treatment
Source text: Pre-Emergence Effect on Weeds Seed of various broad-leaf and grass weed species were sown and compound of formula (I), dissolved in a mixture of acetone and water, was applied at a rate of 500 g/ha or less to the soil surface. The weed species used were Amaranthus retroflexus, Abutilon theophrasti, Alopecurus myosuroides, Avena fatua, Brassica rapa and Echinochloa crus-galli. Post-Emergence Effect on Weeds Seed of the weed species Amaranthus retroflexus, Abutilon theophrasti, Alopecurus myosuroides, Avena fatua, Brassica rapa and Echinochloa crus-galli were sown in soil and grown up to a 1-3 leaves stage. A post-emergence application of compound of formula (I), dissolved in a mixture of acetone and water, was applied at a rate of 500 g/ha or less. Two weeks after treatment in the above test methods, weed control was assessed as a percentage reduction in plant growth, in comparison with untreated control.

SMILES	herbicidal activity (weed control assessed as percentage reduction in plant growth in comparison with untreated control)
N#Cc1cc(C#N)cc(Oc2cccc(OC(F)(F)C(F)F)c2)c1 [Compound 44, 5-(3-[1,1,2,2-tetrafluoroethoxy]phenoxy)isophthalonitrile]	very good herbicidal activity
N#Cc1cc(C#N)cc(Oc2cccc(Oc3ccnc(Cl)n3)c2)c1 [Compound 1, 5-[3-(2-chloropyrimidin-4-yloxy)phenoxy]isophthalonitrile]	very good herbicidal activity
N#Cc1cccc(Oc2cc(C#N)cc(C#N)c2)c1 [Compound 42, 5-(3-cyanophenoxy)isophthalonitrile]	very good herbicidal activity

system: not given; assay: not given; conditions: not given

melting point [°C]	SMILES
196	N#Cc1cc(C#N)cc(Oc2ccnc(Oc3cc(Cl)cc(Cl)c3)n2)c1 [Compound 84, 5-[2-(3,5-dichlorophenoxy)pyrimidin-4-yloxy]isophthalonitrile]
143	N#Cc1cc(C#N)cc(Oc2cccc(O)c2)c1 [Compound 49, 5-(3-hydroxyphenoxy)isophthalonitrile]
156	N#Cc1cc(C#N)cc(Oc2nccc(Oc3cc(Cl)cc(Cl)c3)n2)c1 [Compound 83, 5-[4-(3,5-dichlorophenoxy)pyrimidin-2-yloxy] isophthalonitrile]
212 to 213	N#Cc1cc(C#N)cc(Oc2cccc(Oc3cc(C#N)cc(C#N)c3)c2)c1 [Compound 90, 5-[3-(3,5-dicyanophenoxy)phenoxy]isophthalonitrile]
